What all share (assay): relative viability (nuclei count vs DMSO), 5 days (fraction); higher = more cells survive
Compound in test [1]: Cn1c(Nc2ccc(C(F)(F)F)cc2)nc2cc(Oc3ccnc(-c4ncc(C(F)(F)F)[nH]4)c3)ccc21 [RAF265] + COc1cc2c(Oc3ccc(NC(=O)C4(C(=O)Nc5ccc(F)cc5)CC4)cc3F)ccnc2cc1OCCCN1CCOCC1 [Foretinib] (partner 0.25 µM)
A digest of the protocol: (§1)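 Lung cancer cell lines were pin-tool dosed in 1536-well plates on the day after seeding, with either a lone drug or a fixed anchor-drug dose plus five library-drug doses (not always all listed) in √10 steps. Nuclei were counted on 4× images after 5 days. Relative viability is the ratio of treated-well to vehicle-well nuclei counts, with each value a median of duplicate plates.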

Compound in test [2]: Cn1c(Nc2ccc(C(F)(F)F)cc2)nc2cc(Oc3ccnc(-c4ncc(C(F)(F)F)[nH]4)c3)ccc21 [RAF265] + Nc1nc2[nH]cc(CCc3ccc(C(=O)N[C@@H](CCC(=O)O)C(=O)O)cc3)c2c(=O)[nH]1 [Pemetrexed] (partner 0.2 µM)
A digest of the protocol: as §1

Compound in test [3]: Cn1c(Nc2ccc(C(F)(F)F)cc2)nc2cc(Oc3ccnc(-c4ncc(C(F)(F)F)[nH]4)c3)ccc21 [RAF265] + Cc1nc(Nc2ncc(C(=O)Nc3c(C)cccc3Cl)s2)cc(N2CCN(CCO)CC2)n1 [Dasatinib] (partner 0.075 µM)
The essentials: as §1

Compound in test [4]: Cn1c(Nc2ccc(C(F)(F)F)cc2)nc2cc(Oc3ccnc(-c4ncc(C(F)(F)F)[nH]4)c3)ccc21 [RAF265] + CC1(C)CCC(c2ccc(Cl)cc2)=C(CN2CCN(c3ccc(C(=O)NS(=O)(=O)c4ccc(N[C@H](CCN5CCOCC5)CSc5ccccc5)c(S(=O)(=O)C(F)(F)F)c4)cc3)CC2)C1 [Navitoclax] (partner 0.5 µM)
A digest of the protocol: as §1

For RERF-LC-KJ, the relative viability in test [1] (first compound 0.01 µM) amounted to 0.867; in test [1] (first compound 0.03162 µM) it was 0.85; in test [1] (first compound 0.1 µM), 0.891; in test [1] (first compound 0.3162 µM) it was 0.759; in test [1] (first compound 1 µM), 0.774; in test [2] (first compound 0.01 µM), 0.504. Besides, the relative viability in test [2] (first compound 0.03162 µM) was determined as 0.482; in test [2] (first compound 0.1 µM) it was 0.503; in test [2] (first compound 0.3162 µM), 0.46; in test [2] (first compound 1 µM), 0.51; in test [3] (first compound 0.01 µM), 0.822; in test [3] (first compound 0.03162 µM), 0.735. Besides, the relative viability in test [3] (first compound 0.1 µM) stood at 0.658; in test [3] (first compound 0.3162 µM), 0.456; in test [3] (first compound 1 µM), 0.4; in test [4] (first compound 0.01 µM) it was 1.08; in test [4] (first compound 0.03162 µM) it was 0.95; in test [4] (first compound 0.1 µM), 0.851. Further, the relative viability in test [4] (first compound 0.3162 µM) is 0.747; in test [4] (first compound 1 µM) it was 0.841.
SK-LU-1: the relative viability in test [1] (first compound 0.01 µM) stood at 0.889; in test [1] (first compound 0.03162 µM), 0.615; in test [1] (first compound 0.1 µM) it was 0.491; in test [1] (first compound 0.3162 µM), 0.411; in test [1] (first compound 1 µM), 0.318; in test [2] (first compound 0.01 µM), 0.893. For the same cell line, the relative viability in test [2] (first compound 0.03162 µM) is 0.838; in test [2] (first compound 0.1 µM), 0.711; in test [2] (first compound 0.3162 µM), 0.544; in test [2] (first compound 1 µM), 0.435; in test [3] (first compound 0.01 µM), 0.177; in test [3] (first compound 0.03162 µM) it was 0.177. In addition, the relative viability in test [3] (first compound 0.1 µM) was 0.166; in test [3] (first compound 0.3162 µM) it was 0.181; in test [3] (first compound 1 µM) it was 0.137; in test [4] (first compound 0.01 µM), 1.41; in test [4] (first compound 0.03162 µM), 0.682; in test [4] (first compound 0.1 µM), 0.718. Further, the relative viability was found to be 0.744 in test [4] (first compound 0.3162 µM) and 0.273 in test [4] (first compound 1 µM).
As to SK-MES-1, the relative viability in test [1] (first compound 0.01 µM) turned out to be 1.04; in test [1] (first compound 0.03162 µM) it was 0.932; in test [1] (first compound 0.1 µM) it was 0.816; in test [1] (first compound 0.3162 µM), 0.529; in test [1] (first compound 1 µM), 0.369; in test [2] (first compound 0.01 µM), 0.941. The relative viability in test [2] (first compound 0.03162 µM) was 0.698; in test [2] (first compound 0.1 µM), 0.48; in test [2] (first compound 0.3162 µM), 0.366; in test [2] (first compound 1 µM) it was 0.326; in test [3] (first compound 0.01 µM), 0.482; in test [3] (first compound 0.03162 µM), 0.203. The relative viability is 0.164 in test [3] (first compound 0.1 µM); 0.171 in test [3] (first compound 0.3162 µM); 0.157 in test [3] (first compound 1 µM); 1.11 in test [4] (first compound 0.01 µM); 1.01 in test [4] (first compound 0.03162 µM); 1.01 in test [4] (first compound 0.1 µM). In addition, the values for the relative viability in test [4] (first compound 0.3162 µM) and in test [4] (first compound 1 µM) were 0.361 and 0.209, respectively.
As to SW 1573, the relative viability in test [1] (first compound 0.01 µM) is 1; in test [1] (first compound 0.03162 µM), 1.01; in test [1] (first compound 0.1 µM), 0.887; in test [1] (first compound 0.3162 µM) it was 0.792; in test [1] (first compound 1 µM), 0.732; in test [2] (first compound 0.01 µM), 0.872. The relative viability in test [2] (first compound 0.03162 µM) is 0.833; in test [2] (first compound 0.1 µM), 0.753; in test [2] (first compound 0.3162 µM) it was 0.6; in test [2] (first compound 1 µM) it was 0.634; in test [3] (first compound 0.01 µM), 0.54; in test [3] (first compound 0.03162 µM), 0.442. For the same cell line, the relative viability in test [3] (first compound 0.1 µM) was determined as 0.31; in test [3] (first compound 0.3162 µM) it was 0.29; in test [3] (first compound 1 µM), 0.21; in test [4] (first compound 0.01 µM), 1.23; in test [4] (first compound 0.03162 µM) it was 0.984; in test [4] (first compound 0.1 µM), 1.04. The relative viability came to 0.89 in test [4] (first compound 0.3162 µM) and 0.389 in test [4] (first compound 1 µM).
